Assay results as given in patent publication US9750724B2, “Use of an aromatase inhibitor for the treatment of hypogonadism and related diseases” (Mereo BioPharma 2 Limited, priority 2011, dated 2017).
Where two headings read alike, the source gives them in different places.

Experiments:
[1] = system: serum testosterone, estradiol, LH and FSH; conditions: 2.5 mg weekly, cited from earlier work; for free testosterone: fixed dosing interval
[2] = Single ascending dose study in pre- and post-menopausal women, pharmacokinetics; type: in vivo, human; conditions: female, human, in vivo, 2.5 mg
Source text: The drug concentration in plasma and/or serum samples can be determined by a number of different ways, e.g. HPLC or LC-MS/MS analyses. […]
A minimal toxic dose (MTD) was not reached. […] Table 3 presents the PK parameters based on preliminary analysis of the concentration-time profile obtained from this study.

Tmax [2]: 1 h | AUC(0-t) ([2]; AUC (0-tlast) Mean): 1670 ng·h/mL | Cmax ([2]; Cmax Mean): 33.5 ng/mL | half-life ([2]; T1/2 Mean): 69.6 h
Structure (SMILES): N#Cc1ccc(C(c2ccc(C#N)cc2)n2cncn2)cc1 [Letrozole, letrozole]
LH and FSH ([1]; 12 OHH men): increased LH and FSH | total estradiol ([1]; 12 OHH men): suppressed total estradiol | total testosterone ([1]; 12 OHH men, de Boer 2005, Loves 2008): increased total testosterone into the normal range | free testosterone [1]: rose above the normal range in approximately half of the subjects | free testosterone ([1]; listed as letrozole): excessive free testosterone levels in approximately half the subjects
